This is an account of results in US20260144890A1, “ANTIBODY DRUG CONJUGATE COMPRISING NMT INHIBITOR CONJUGATED TO AN ANTIBODY” (MyricX Pharma Limited, priority 2024, published 2026).

Where two headings read alike, the source gives them in different places.

Data set [1] has as its system JIMT-1 human breast xenograft. Format: in vivo. The text has this: The study was terminated on the Study Day 60.
Data set [2] has as its system JIMT-1 human breast xenograft. Description: JIMT1 breast cancer xenograft model (Balb/c nude mice, ADC Example 1). The data set is classed as in vivo, mouse. As for the experimental part:
In this study, 72 mice were inoculated subcutaneously in the right front flank region with 1×10^7 viable JIMT-1 tumour cells resuspended in Matrigel (1:1) on Study Day −15. When tumours reached a tumour volume of approximately 120-150 mm^3, 60 mice with the most similarly sized tumours were randomly assigned to 6 treatment groups on Study Day 0. […] The study was terminated on Study Day 58. The dosing regimen was as follows:
The body weight of all mice in each group was measured and recorded three times weekly throughout the duration of the study. Moreover, the tumour volume was measured (mm^3) and recorded using digital calipers three times weekly throughout the duration of the study. In particular, the length, width, and depth of the tumour were each measured and used to calculate tumour volume (mm^3). The results are shown in FIG. 58, FIG. 59, and FIG. 60.

Data set [3] deals with BT474 breast cancer cells. Description: Orthotopic breast cancer xenograft model (BT474). Format: in vivo, mouse. The protocol:
During the study, body weights were measured three times weekly for all animals. Animals were given Diet Gel for the entire duration on the study.

For the next data set, the system named is SU-DHL-10 cell line. Description: Cell cytotoxicity in SU-DHL-10 cell line (CTG, 72 h). Format: cell-based. Conditions: Homo sapiens, SU-DHL10, 72 h, 72 h treatment. The protocol:
Certain NMT inhibitors were tested in the SU-DHL-10 cell line (human B cell lymphoma). Compounds which show efficacy in this assay are expected to be useful as agents for treating or preventing hyperproliferative disorders such as cancer.
Cells were seeded in 96-well microplates and treated with compounds or cisplatin (as a positive control) at 9 increasing concentrations in technical triplicate. […] On day 1, 90 μL of various cell suspensions with the number of cells ranging from 5000-8000 cells/well were seeded into wells of a 96-well plate (Corning). The number of cells to be seeded was previously determined. • 2. All 96-wells plates with cells were placed in an incubator overnight at 37° C. with 5% CO2. • 3. On day 2, cells were observed under a microscope ensuring the cells treated with vehicle control were in good condition. • 4. A dilution series of the test compounds and cisplatin were prepared at 10× the final concentrations required. 10 μL/well of 10× compound solution was added to the corresponding plates. The final volume was 100 μL/well for all the plates. […]
Luminescence was recorded using an EnVision Multi Label Reader. […]
(LumTest article=luminescence in test article treated well; LumNone treated=luminescence in vehicle treated well; LumMedium control=luminescence in a well containing only medium and no cells; LumNone treated−LumMedium control was set as 100%).

Data set [4] relates to VCaP human prostate cancer xenograft. Description: VCaP prostate cancer xenograft model. Format: in vivo, mouse. As for the experimental part:
In this study, 144 mice were inoculated subcutaneously in the right front flank region with 1×10^7 viable VCaP tumour cells resuspended in 0.1 mL of PBS mixed with Matrigel (1:1) for tumour development on Study Day −20. 80 mice were assigned to 8 treatment groups when tumour volumes averaged ˜162.16 mm^3 on Study Day 0. Dosing commenced the following day and all animals were dosed intravenously with ADC Example 4, ifinatamab-deruxtecan (ifinatamab-Dxd) or unconjugated ifinatamab. All mice received two doses of test agent, on Study Day 1 and Study Day 8. The study was terminated on Study Day 30. • The 8 groups were assigned as follows: […]

For the next data set, the system named is LNCaP tumours. Nature of the data set: LNCaP prostate cancer xenograft model. Conditions: for Day 28 tumour volume (mean ± SEM) / Tumour growth inhibition (TGI, %): IV, Q7D (x3); for Tumour growth inhibition (TGI, %): day 28.

Procedure for LNCaP tumours: A total of 84 male NOD SCID mice aged 5-8 weeks and weighing 25-30 g were used for the study.
• Duration of observation: 35 days. • Dosing volume: 5 mL/kg for all IV doses

For sacituzumab, the “tumour volume compared to vehicle alone” value in data set [1] (2.5 mg/kg) is “no significant difference”; in data set [1] (5 mg/kg) it was “significant decrease”. Besides, the “ΔTGI (Study Day 28)” value in data set [1] (2.5 mg/kg QW x 2 weeks IV) amounted to 12.11%; in data set [1] (5 mg/kg QW x 2 weeks IV), 14.44%.
trastuzumab emtansine: in data set [2] (5 mg/kg IV on Study Days 0, 7, 28 and 35, agent alone), the “tumour volume compared to vehicle alone” value is reported as “no decrease in tumour volume”. Besides, in data set [2] (5 mg/kg IV, agent alone), the “mice that completely responded (of 10)” value is recorded as “no mice” and the “mice that partially responded (of 10)” value is “no mice”.
On to `CNCc1cnc2ccc(-c3ccc(F)c(F)c3OCCc3c(C(O)C(C)(C)C)nn(C)c3C)cn12` (centres unmarked) [NMT inhibitor 1, 1-(4-(2-(2,3-difluoro-6-(3-((methylamino)methyl)imidazo[1,2-a]pyridin-6-yl)phenoxy)ethyl)-1,5-dimethyl-1H-pyrazol-3-yl)-2,2-dimethylpropan-1-ol], for which the tumour size result in data set [3] (2.0 mg/kg, 2 days dosing then 5 day holiday, stopped at day 13) was “reduced tumour size”. Besides, the “body weights of mice” value in data set [3] (trastuzumab and ADC 2.5 and 5 mg/kg, NMT inhibitor 1 2 mg/kg) is recorded as “decreased significantly”.
As to `CNCc1cnc2ccc(-c3ccc(F)c(F)c3OCCc3c(C(O)C(C)(C)C)nn(C)c3C)cn12` (single isomer, unassigned) [compound 13, 1-(4-(2-(2,3-difluoro-6-(3-((methylamino)methyl)imidazo[1,2-a]pyridin-6-yl)phenoxy)ethyl)-1,5-dimethyl-1H-pyrazol-3-yl)-2,2-dimethylpropan-1-ol], the IC50 with SU-DHL-10 cell line was determined as 700 pM.
Consider sacituzumab govitecan, for which the “tumour volume compared to vehicle alone” value in data set [1] (2.5 mg/kg) and in data set [1] (5 mg/kg) was “significant decrease” in each case. In addition, the “ΔTGI (Study Day 28)” value in data set [1] (2.5 mg/kg QW x 2 weeks IV) stood at 13.13%; in data set [1] (5 mg/kg QW x 2 weeks IV), 23.39%. Further, the efficacy of treatment entry in data set [1] (Group 4, 5 mg/kg) is reported as “only partially efficacious”.
Take ifinatamab: the “tumour volume compared to vehicle alone” value in data set [4] (2.5 mg/kg) and in data set [4] (5 mg/kg) was “no significant difference” throughout. The entries for the “ΔTGI (Study Day 17)” value in data set [4] (2.5 mg/kg QW x 2 weeks IV) and in data set [4] (5 mg/kg QW x 2 weeks IV) were 8.47% and 12.44%, respectively. The “LNCaP tumour volume compared to vehicle” value in the data set on LNCaP tumours (5 mg/kg) and in the data set with LNCaP tumours (10 mg/kg) was “no significant effect” throughout. Further, the results for the “Day 28 tumour volume (mean ± SEM)” value in the data set with LNCaP tumours (5 mg/kg) and in the data set on LNCaP tumours (10 mg/kg) were 551.4 ± 73.1 mm^3 and 666.56 ± 103.2 mm^3, respectively. For the same molecule, the figures for the “Tumour growth inhibition (TGI, %)” value in the data set with LNCaP tumours (5 mg/kg) and with LNCaP tumours (10 mg/kg) were 30.6% and 13.0%, respectively.

B1: ifinatamab-DXd (conjugate, chains of the INN, looked up)
VH: QVQLVQSGAEVKKPGSSVKVSCKASGYTFTNYVMHWVRQAPGQGLEWMGYINPYNDDVKYNEKFKGRVTITADESTSTAYMELSSLRSEDTAVYYCARWGYYGSPLYYFDYWGQGTLVTVSS
VL: EIVLTQSPATLSLSPGERATLSCRASSRLIYMHWYQQKPGQAPRPLIYATSNLASGIPARFSGSGSGTDFTLTISSLEPEDFAVYYCQQWNSNPPTFGQGTKVEIK
modifications: deruxtecan (DXd) payload
Consider B1, for which the “tumour volume compared to vehicle alone” value is “no significant difference” in data set [4] (2.5 mg/kg) and “significantly higher tumour volume” in data set [4] (5 mg/kg). Further, the entries for the “ΔTGI (Study Day 17)” value in data set [4] (2.5 mg/kg QW x 2 weeks IV) and in data set [4] (5 mg/kg QW x 2 weeks IV) were 5.24% and 2.86%, respectively. In addition, the “LNCaP tumour volume compared to vehicle” value is listed as “slowed the growth of LNCaP tumours to a lesser extent” with LNCaP tumours (5 mg/kg) and “significantly reduced the mean volume of LNCaP tumours” with LNCaP tumours (10 mg/kg). Further, the figures for the “Day 28 tumour volume (mean ± SEM)” value in the data set with LNCaP tumours (5 mg/kg) and in the data set with LNCaP tumours (10 mg/kg) were 364.6 ± 51.7 mm^3 and 259.5 ± 50.3 mm^3, respectively. The “Tumour growth inhibition (TGI, %)” value in the data set with LNCaP tumours (5 mg/kg) is 58.8%; in the data set on LNCaP tumours (10 mg/kg), 75.0%.
